Measurements: patent publication US20250137050A1, “METHODS AND COMPOSITIONS FOR DETERMINING RISK OF AUTISM SPECTRUM DISORDERS” (The Regents of the University of California, priority 2021, published 2025)
Entries after “also recorded” stand apart in the source; their conditions may differ.

Key:
Format in all cases: cell-based, human
LUHMES cells [1] = assay: Cell viability (CellTiter Blue) of LUHMES cells after hypoxia mimetic; settings: differentiated LUHMES neurons compared with undifferentiated; CoCl2 for 24 hours
Description: (§1) LUHMES cells (ATCC, Manassas, VA, USA, CRL-2927) were seeded on fibronectin coated plates (Thermo Fisher Scientific, Waltham, MA, USA, CWP001, 354402). Undifferentiated cells were maintained in proliferation medium: Advanced DMEM/F12 (Invitrogen, Carlsbad, CA, USA), supplemented with N2 supplement (Invitrogen, Carlsbad, CA, USA), Penicillin-streptomycin-glutamine (Thermo Fisher Scientific, Waltham, MA, USA), and 40 ng/ml recombinant bFGF (Invitrogen, Carlsbad, CA, USA). To generate differentiated LUHMES, cells were switched to differentiation media for five days. […] For RNA quantification, cells were maintained in 6-well plates. […]
(§2) All cells were maintained at 37° C. containing […] and 5% CO2. […] Cell numbers were measured using disposable countess chamber slide on Countess II FL automated cell counter (Thermo Fisher Scientific, Waltham, MA, USA) under the default steps with mixing 10 μl of samples with 10 μl of trypan blue. CellTiter Blue reagent was used for measured cell viability using […] based on manufacturer instruction (Promega, Madison, WI, USA). H2O2 production represented relative reactive oxygen species (ROS) level was measured with the ROS-Glo H2O2 assay system using 50 nM with the default setting with level measured by luminometer (Promega, Madison, WI, USA).

LUHMES cells [2] = assay: Reactive oxygen species (ROS-Glo H2O2 assay) in LUHMES cells after hypoxia mimetic; settings: differentiated LUHMES neurons compared with undifferentiated; 100 nM CoCl2 for 24 hours
Description: as §1, §2

NHIP = NHIP transcript levels by RT-qPCR in LUHMES cells after hypoxia mimetic; settings: differentiated LUHMES cells
Description: as §1, with “days. Differentiation media: Advanced DMEM/F12, supplemented with N2 supplement, Penicillin-streptomycin-glutamine, 1 mM dbcAMP (MilliporeSigma, Burlington, MA, USA), 1 μg/ml tetracycline (Neta Scientific, Hainesport, NJ, USA), and 2 ng/ml recombinant human GDNF (Thermo Fisher Scientific, Waltham, MA, USA).” for “days.”
Total RNA was isolated from HEK293T cells transiently transfected with NHIP-eGFP or negative control NEG-eGFP using AllPrep DNA/RNA/Protein mini kit (Qiagen, Hilden, Germany). […] Fold changes of transcript levels were measured using the Fluidigm Real-Time PCR Analysis software calculated fold change of gene expression as the delta delta CT normalized to GAPDH (Fluidigm, San Francisco, CA, USA).

In the case of `[Cl][Co][Cl]` [CoCl2, cobalt chloride], the cell viability (LUHMES cells [1]) is reported as “significant decrease”, the “reactive oxygen species (ROS) levels” value (LUHMES cells [2]) is reported as “increase” and the NHIP transcript levels (NHIP; 100 nM CoCl2 for 24 hours vs mock, normalized to GAPDH) is reported as “significantly increased”. For the same molecule, the “NHIP transcript levels after removal of hypoxia mimetic” value (NHIP; 48 hours of recovery (Day 8) after 24 hours of CoCl2) was “returned to untreated levels; also recorded: returned to mock control baseline levels”.
